Experimental data: BindingDB's records for doi:10.1016/S0960-894X(02)01050-8 (The University of Texas At Houston, 2003)
Square brackets hold non-standard residues; d marks the D form. Peptide text beside a SMILES is read from it. ξ: configuration not given here. Phe(4-tetrazol-5-yl) = N[C@@H](Cc1ccc(-c2nnn[nH]2)cc1)C(=O)O; Phe(4-COOH) = N[C@@H](Cc1ccc(C(=O)O)cc1)C(=O)O; pY = N[C@@H](Cc1ccc(OP(=O)(O)O)cc1)C(=O)O; Thr(3ξ) = CC(O)[C@H](N)C(=O)O

target: Signal transducer and activator of transcription 3 (Mus musculus, UniProt P42227); experiment: Electrophoretic Mobility Shift Assay (EMSA); settings: pH 7.8; 22 °C
Experimental: His10-Stat3 was expressed in Sf9 cells from a baculovirus encoding the recombinant protein. A nuclear extract of the Sf9 cells was incubated with 32P-labeled high affinity c-fos sis inducible element (hSIE) either alone or in the presence of inhibitor. After 20 min of incubation, samples were electrophoresed on polyacrylamide gels. The gels were dried, exposed to a phosphorimager screen and scanned. IC50 values were derived from plots of spot intensity versus phosphopeptide concentration. The affinity of peptides to the SH2 domain is measured by the intensity of the radioactivity of the Stat3-DNA complex band in the electrophoresis gel.

Sequence of Signal transducer and activator of transcription 3 (P42227 whole entry, the tested form may be a part): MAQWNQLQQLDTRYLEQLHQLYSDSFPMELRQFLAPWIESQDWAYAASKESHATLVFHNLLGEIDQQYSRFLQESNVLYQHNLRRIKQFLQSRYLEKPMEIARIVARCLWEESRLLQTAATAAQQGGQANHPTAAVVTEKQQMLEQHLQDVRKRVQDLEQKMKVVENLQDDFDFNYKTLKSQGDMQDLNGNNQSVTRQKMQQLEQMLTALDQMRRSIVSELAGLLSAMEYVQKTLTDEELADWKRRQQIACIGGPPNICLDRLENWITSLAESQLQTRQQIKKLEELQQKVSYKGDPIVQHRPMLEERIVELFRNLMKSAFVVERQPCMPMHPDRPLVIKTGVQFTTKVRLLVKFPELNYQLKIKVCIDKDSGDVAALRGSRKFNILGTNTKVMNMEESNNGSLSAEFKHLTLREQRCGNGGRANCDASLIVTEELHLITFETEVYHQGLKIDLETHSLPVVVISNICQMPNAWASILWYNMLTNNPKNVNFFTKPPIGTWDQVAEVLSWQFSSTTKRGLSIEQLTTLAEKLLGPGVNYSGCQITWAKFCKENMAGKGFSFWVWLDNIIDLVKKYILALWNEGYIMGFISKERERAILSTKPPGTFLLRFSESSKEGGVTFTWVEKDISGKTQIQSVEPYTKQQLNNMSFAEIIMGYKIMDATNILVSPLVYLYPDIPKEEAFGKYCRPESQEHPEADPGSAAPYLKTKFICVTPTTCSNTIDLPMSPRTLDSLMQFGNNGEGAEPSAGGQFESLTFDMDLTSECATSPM

SMILES | IC50
CC(=O)N[C@@H](Cc1ccc(OP(=O)(O)O)cc1)C(=O)N[C@@H](CC(C)C)C(=O)N1CCC[C@H]1C(N)=O [Y(p)LP] (Ac-[pY]-Leu-Pro-NH2) | > 6 µM
CC(=O)N[C@@H](Cc1ccc(-c2nnn[nH]2)cc1)C(=O)N[C@@H](CC(C)C)C(=O)N1CCC[C@H]1C(=O)N[C@@H](CCC(N)=O)C(=O)N[C@H](C(=O)N[C@H](C(N)=O)C(C)C)C(C)O (stereo partly drawn) [(2S)-N-[(1S,2S)-1-{[(1S)-1-carbamoyl-2-methylpropyl]carbamoyl}-2-hydroxypropyl]-2-{[(2S)-1-[(2S)-2-[(2S)-2-acetamido-3-[4-(2H-1,2,3,4-tetrazol-5-yl)phenyl]propanamido]-4-methylpentanoyl]pyrrolidin-2-yl]formamido}pentanediamide] (Ac-[Phe(4-tetrazol-5-yl)]LPQ[Thr(3ξ)]V-NH2) | > 6 µM
CC(=O)N[C@@H](Cc1ccc(OP(=O)(O)O)cc1)C(=O)N[C@@H](CC(C)C)C(=O)N[C@@H](CCCCN)C(=O)N[C@H](C(=O)N[C@@H](CCCCN)C(=O)N[C@@H](Cc1ccccc1)C(N)=O)C(C)O (stereo partly drawn) [4-[(2S)-2-{[(1S)-1-{[(1S)-5-amino-1-{[(1S,2R)-1-{[(1S)-5-amino-1-{[(1S)-1-carbamoyl-2-phenylethyl]carbamoyl}pentyl]carbamoyl}-2-hydroxypropyl]carbamoyl}pentyl]carbamoyl}-3-methylbutyl]carbamoyl}-2-acetamidoethyl]phenoxyphosphonic acid] (Ac-[pY]LK[Thr(3ξ)]KF-NH2) | 20 µM
CC(=O)N[C@@H](Cc1ccc(OP(=O)(O)O)cc1)C(=O)N[C@@H](CC(C)C)C(=O)N1CCC[C@H]1C(=O)N[C@@H](CC(N)=O)C(=O)N[C@H](C(=O)N[C@H](C(N)=O)C(C)C)C(C)O (stereo partly drawn) [4-[(2S)-2-{[(2S)-1-[(2S)-2-{[(1S)-2-carbamoyl-1-{[(1S,2S)-1-{[(1S)-1-carbamoyl-2-methylpropyl]carbamoyl}-2-hydroxypropyl]carbamoyl}ethyl]carbamoyl}pyrrolidin-1-yl]-4-methyl-1-oxopentan-2-yl]carbamoyl}-2-acetamidoethyl]phenoxyphosphonic acid] (Ac-[pY]LPN[Thr(3ξ)]V-NH2) | 2 µM
CC(=O)N[C@@H](Cc1ccc(OP(=O)(O)O)cc1)C(=O)N[C@@H](CC(C)C)C(=O)N1CCC[C@H]1C(=O)N[C@@H](CCC(N)=O)C(N)=O (Ac-[pY]LPQ-NH2) | 1 µM
CC(=O)N[C@@H](Cc1ccc(OP(=O)(O)O)cc1)C(=O)N[C@@H](CO)C(=O)N[C@@H](CC(=O)O)C(=O)NCC(=O)N[C@@H](CC(N)=O)C(=O)N[C@@H](Cc1ccccc1)C(N)=O [Y(p)SDGNF] (Ac-[pY]SDGNF-NH2) | > 150 µM
CC(=O)N[C@@H](Cc1ccc(OP(=O)(O)O)cc1)C(=O)N[C@@H](CC(C)C)C(=O)N1CCC[C@H]1C(=O)N[C@@H](CCC(N)=O)C(=O)N[C@H](C(N)=O)C(C)O (stereo partly drawn) [4-[(2S)-2-{[(2S)-1-[(2S)-2-{[(1S)-3-carbamoyl-1-{[(1S,2S)-1-carbamoyl-2-hydroxypropyl]carbamoyl}propyl]carbamoyl}pyrrolidin-1-yl]-4-methyl-1-oxopentan-2-yl]carbamoyl}-2-acetamidoethyl]phenoxyphosphonic acid] (Ac-[pY]LPQ[Thr(3ξ)]-NH2) | 0.6 µM
CC(=O)N[C@@H](Cc1ccc(OP(=O)(O)O)cc1)C(=O)N[C@@H](CC(C)C)C(=O)N1CCC[C@H]1C(=O)N[C@@H](C)C(=O)N[C@H](C(=O)N[C@H](C(N)=O)C(C)C)C(C)O (some centres undefined) [Y(p)LPATV] (Ac-[pY]LPA[Thr(3ξ)]V-NH2) | > 6 µM
CC(=O)N[C@@H](Cc1ccc(OP(=O)(O)O)cc1)C(=O)N[C@@H](CC(C)C)C(=O)N[C@@H](C)C(=O)N[C@@H](CCC(N)=O)C(=O)N[C@H](C(=O)N[C@H](C(N)=O)C(C)C)C(C)O (stereo partly drawn) [4-[(2S)-2-{[(1S)-1-{[(1S)-1-{[(1S)-3-carbamoyl-1-{[(1S,2S)-1-{[(1S)-1-carbamoyl-2-methylpropyl]carbamoyl}-2-hydroxypropyl]carbamoyl}propyl]carbamoyl}ethyl]carbamoyl}-3-methylbutyl]carbamoyl}-2-acetamidoethyl]phenoxyphosphonic acid] (Ac-[pY]LAQ[Thr(3ξ)]V-NH2) | 4 µM
CC(=O)N[C@@H](Cc1ccc(OP(=O)(O)O)cc1)C(=O)N[C@@H](CC(C)C)C(=O)N1CCC[C@H]1C(=O)N[C@@H](CCC(=O)O)C(=O)N[C@H](C(=O)N[C@H](C(N)=O)C(C)C)C(C)O (stereo partly drawn) [(4S)-4-{[(1S,2S)-1-{[(1S)-1-carbamoyl-2-methylpropyl]carbamoyl}-2-hydroxypropyl]carbamoyl}-4-{[(2S)-1-[(2S)-2-[(2S)-2-acetamido-3-[4-(phosphonooxy)phenyl]propanamido]-4-methylpentanoyl]pyrrolidin-2-yl]formamido}butanoic acid] (Ac-[pY]LPE[Thr(3ξ)]V-NH2) | > 6 µM
CC(=O)N[C@@H](Cc1ccc(OP(=O)(O)O)cc1)C(=O)N[C@@H](CC(C)C)C(=O)N[C@@H](CCCN=C(N)N)C(=O)N[C@@H](CS)C(=O)N[C@@H](CC(=O)O)C(=O)N[C@@H](CO)C(N)=O [(3S)-3-[(2R)-2-[(2S)-5-carbamimidamido-2-[(2S)-2-[(2S)-2-acetamido-3-[4-(phosphonooxy)phenyl]propanamido]-4-methylpentanamido]pentanamido]-3-sulfanylpropanamido]-3-{[(1S)-1-carbamoyl-2-hydroxyethyl]carbamoyl}propanoic acid] (Ac-[pY]LRCDS-NH2) | 80 µM
CC(=O)N[C@@H](Cc1ccc(OP(=O)(O)O)cc1)C(=O)N[C@@H](CC(C)C)C(=O)N1CCC[C@H]1C(=O)N[C@@H](CCC(N)=O)C(=O)N[C@H](C(=O)N[C@H](C(N)=O)C(C)C)C(C)O (stereo partly drawn) [4-[(2S)-2-{[(2S)-1-[(2S)-2-{[(1S)-3-carbamoyl-1-{[(1S,2S)-1-{[(1S)-1-carbamoyl-2-methylpropyl]carbamoyl}-2-hydroxypropyl]carbamoyl}propyl]carbamoyl}pyrrolidin-1-yl]-4-methyl-1-oxopentan-2-yl]carbamoyl}-2-acetamidoethyl]phenoxyphosphonic acid] | 0.15 µM
CC(=O)N[C@@H](Cc1ccc(OP(=O)(O)O)cc1)C(=O)N[C@@H](CO)C(=O)N[C@H](C(=O)N[C@H](C(=O)N[C@H](C(=O)N[C@@H](Cc1cnc[nH]1)C(N)=O)C(C)C)C(C)C)C(C)O (some centres undefined) [Y(p)STVVH] (Ac-[pY]S[Thr(3ξ)]VVH-NH2) | > 150 µM
CC(=O)N[C@@H](Cc1ccc(C(=O)O)cc1)C(=O)N[C@@H](CC(C)C)C(=O)N1CCC[C@H]1C(=O)N[C@@H](CCC(N)=O)C(=O)N[C@H](C(=O)N[C@H](C(N)=O)C(C)C)C(C)O (stereo partly drawn) [4-[(2S)-2-{[(2S)-1-[(2S)-2-{[(1S)-3-carbamoyl-1-{[(1S,2S)-1-{[(1S)-1-carbamoyl-2-methylpropyl]carbamoyl}-2-hydroxypropyl]carbamoyl}propyl]carbamoyl}pyrrolidin-1-yl]-4-methyl-1-oxopentan-2-yl]carbamoyl}-2-acetamidoethyl]benzoic acid] (Ac-[Phe(4-COOH)]LPQ[Thr(3ξ)]V-NH2) | > 6 µM
CC(=O)N[C@@H](Cc1ccc(CP(=O)(O)O)cc1)C(=O)N[C@@H](CC(C)C)C(=O)N1CCC[C@H]1C(=O)N[C@@H](CCC(N)=O)C(=O)N[C@H](C(=O)N[C@H](C(N)=O)C(C)C)C(C)O (stereo partly drawn) [({4-[(2S)-2-{[(2S)-1-[(2S)-2-{[(1S)-3-carbamoyl-1-{[(1S,2S)-1-{[(1S)-1-carbamoyl-2-methylpropyl]carbamoyl}-2-hydroxypropyl]carbamoyl}propyl]carbamoyl}pyrrolidin-1-yl]-4-methyl-1-oxopentan-2-yl]carbamoyl}-2-acetamidoethyl]phenyl}methyl)phosphonic acid] | 8 µM
CCC(C)[C@H](NC(=O)[C@H](Cc1ccc(OP(=O)(O)O)cc1)NC(C)=O)C(=O)N[C@@H](CC(N)=O)C(=O)N[C@@H](CCC(N)=O)C(=O)N[C@@H](CO)C(=O)N[C@H](C(N)=O)C(C)C (some centres undefined) [Y(p)INQSV] | 30 µM
CC(=O)N[C@@H](Cc1ccc(OP(=O)(O)O)cc1)C(=O)N[C@@H](CCC(N)=O)C(=O)N[C@@H](CCCCN)C(=O)N[C@@H](CCC(N)=O)C(=O)N[C@H](C(=O)N[C@@H](CCCN=C(N)N)C(N)=O)C(C)O (some centres undefined) [Y(p)QKQTR] (Ac-[pY]QKQ[Thr(3ξ)]R-NH2) | 8 µM
CC(=O)N[C@@H](Cc1ccc(OP(=O)(O)O)cc1)C(=O)N[C@@H](CC(C)C)C(=O)N1CCC[C@H]1C(=O)N[C@@H](CCC(N)=O)C(=O)N[C@H](C(=O)N[C@@H](C)C(N)=O)C(C)O (stereo partly drawn) [4-[(2S)-2-{[(2S)-1-[(2S)-2-{[(1S)-3-carbamoyl-1-{[(1S,2S)-1-{[(1S)-1-carbamoylethyl]carbamoyl}-2-hydroxypropyl]carbamoyl}propyl]carbamoyl}pyrrolidin-1-yl]-4-methyl-1-oxopentan-2-yl]carbamoyl}-2-acetamidoethyl]phenoxyphosphonic acid] (Ac-[pY]LPQ[Thr(3ξ)]A-NH2) | 0.4 µM
CC(=O)N[C@@H](Cc1ccc(OP(=O)(O)O)cc1)C(=O)N[C@@H](C)C(=O)N1CCC[C@H]1C(=O)N[C@@H](CCC(N)=O)C(=O)N[C@H](C(=O)N[C@H](C(N)=O)C(C)C)C(C)O (some centres undefined) [Y(p)APQTV] (Ac-[pY]APQ[Thr(3ξ)]V-NH2) | 1.6 µM
